{"source": "paper PMC12424289", "about": "“Programmable Nanostructure Assembly of a Paclitaxel Derivative Enables Tunable Anticancer Therapy via Hydrogen Bond Engineering” (ACS Nano, 2025)", "key": {"[1]": {"tested_on": "human colon HCT116-Luc cells", "assay": "CCK8 antiproliferation assay, HCT116-Luc", "assay_type": "cell-based", "conditions": "48 h treatment", "protocol": "(§1) The mouse breast cancer cell line 4T1 and the human ovarian cancer cell line SKOV3 were cultured in RPMI 1640 medium supplemented with 10% fetal bovine serum, 100 units·mL^–1 penicillin, and 100 μg·mL^–1 streptomycin. The human lung cancer cell line A549 and the luciferase-expressing human colorectal carcinoma cell line HCT116-Luc were cultured in high-glucose DMEM medium supplemented with 10% fetal bovine serum, 100 units·mL^–1 penicillin, and 100 μg·mL^–1 streptomycin. All cell lines were maintained at 37 °C in a Steri-Cycle 371 incubator (Thermo Scientific, USA) with a humidified atmosphere of 5% CO2. Only cells between passages 5 and 15 were used for cell-based experiments.\n(§2) The antiproliferative activity of PTP was evaluated using the Cell Counting Kit-8 (CCK8) assay. PTX solution served as a positive control. Cell suspensions were prepared at a density of 3 × 10^4 cells·mL^–1 and seeded in 96-well plates at a volume of 100 μL per well. The plates were incubated for 24 h to allow cell attachment and growth. Subsequently, the culture media were replaced with fresh media containing varying concentrations of PTX or PTP solutions (100 μL per well), and the cells were incubated for an additional 48 h (n = 3). Control wells received fresh culture media alone (n = 3). […] Finally, the absorbance was measured at 450 nm using a microplate reader (Synergy H1, BioTek, USA). […]"}, "human lung A549 cells": {"tested_on": "human lung A549 cells", "assay": "CCK8 antiproliferation assay, A549", "assay_type": "cell-based", "conditions": "A549, 48 h treatment", "protocol": "as §1, §2"}, "[2]": {"assay": "Serum biochemistry safety assessment", "assay_type": "in vivo, Balb/c mice", "conditions": "mice, iv 10 mg·kg^–1 PTX equivalent, q.o.d. × 5, day 10; PTP versus PTP@PEG", "protocol": "In a related safety assessment, female Balb/c mice (18–22 g, n = 3) were fasted for 12 h, then treated intravenously with either 5% G, PTX solution, PTP, or PTP@PEG using the previously described dosing regimen (10 mg·kg^–1 PTX equivalent, q.o.d. × 5). On day 10, blood was collected and then processed to obtain serum by centrifugation (2000 rpm, 10 min, 4 °C). Serum samples were subsequently analyzed for biochemical markers using a Chemray 240 automated analyzer (Rayto Life and Analytical Sciences Co., Ltd., China)."}, "[3]": {"assay": "Biodistribution in 4T1 tumor-bearing mice", "assay_type": "in vivo, Balb/c mice", "conditions": "iv 10.0 mg·kg^–1", "protocol": "For plasma samples, 50 μL of plasma was mixed with 100 μL of a docetaxel acetonitrile solution (15 ng·mL^–1) for protein precipitation. The mixture was vortexed and then centrifuged at 4 °C, 17 000 rpm for 30 min. For tissue samples, mice were euthanized at specified time points, and tissues were harvested and rinsed with saline. Two kidneys, the entire heart, spleen, lung, tumor, and 150–200 mg of liver were placed in grinding tubes. Saline was added at a ratio of 1:5 (m/v), and the tissues were ground using a freezing grinder (Jingxin, China) at 4 °C. Next, 100 μL of docetaxel acetonitrile solution (15 ng·mL^–1) was added to 50 μL of the tissue homogenate. […] The supernatants for both plasma and tissue samples were analyzed by LC-MS as described below.\nThe concentrations of PTP and PTX in plasma and tissue samples were determined using liquid chromatography–mass spectrometry (LC-MS) with a G6470A system (Agilent, USA) equipped with a C18 column (2.1 × 100 mm, 2.7 μm, Agilent, USA). […]\nPharmacokinetic features were evaluated in Sprague–Dawley rats (200–300 g, n = 6 per group) following a single intravenous administration of PTX solution (1.0 mg·mL^–1), PTP (1.2 mg·mL^–1), or PTP@PEG (1.2 mg·mL^–1) at a dose equivalent to 3.0 mg·kg^–1 PTX. […] Biodistribution was assessed in female Balb/c mice (18–22 g; n = 6 per group) bearing subcutaneous 4T1 tumors (target volume 200–300 mm^3). […]"}, "Balb/c mice": {"tested_on": "Balb/c mice", "assay": "Maximum tolerated dose / survival in mice", "assay_type": "in vivo, mouse", "conditions": "iv, PTP 100 mg·kg^–1, 14 days"}, "[4]": {"assay": "Surface tension measurement / critical aggregation concentration", "assay_type": "physicochemical", "protocol": "Surface tension measurements were conducted at 25 °C using a drop shape analyzer (DSA30S; Kruss, Germany). Starting with a 5.0 mg·mL^–1 PTP dispersion, serial dilutions were prepared to obtain a range of lower concentrations. Following overnight assembly, the PTP dispersion was drawn into a syringe (HENKE-JECT, Germany), and a droplet was suspended from the needle tip. The outer diameter of the needle (1.825 mm) served as the reference for image analysis. Images of the droplet were captured, and the surface tension was calculated using the Young–Laplace equation based on the droplet’s shape."}}, "data": [{"smiles": "CC(=O)O[C@H]1C(=O)[C@@]2(C)[C@H]([C@H](OC(=O)c3ccccc3)[C@]3(O)C[C@H](OC(=O)[C@H](OC(=O)CCP(=O)(O)O)[C@@H](NC(=O)c4ccccc4)c4ccccc4)C(C)=C1C3(C)C)[C@]1(OC(C)=O)CO[C@@H]1C[C@@H]2O", "note": "[PTP, PTX-2’–OOC-P]", "values": [{"measurement": "IC50", "setting": "[1]", "result": 12.5, "unit": "nM"}, {"measurement": "IC50", "setting": "human lung A549 cells", "result": 13.2, "unit": "nM"}, {"measurement": "blood urea nitrogen (BUN) and creatinine (CREA) levels", "setting": "[2]", "result": "comparable"}, {"measurement": "biodistribution, organs of accumulation", "setting": "[3]", "result": "primarily accumulated in the liver and kidney"}, {"measurement": "fatalities", "setting": "Balb/c mice", "result": "No fatalities"}, {"measurement": "water–air surface tension (plateau)", "setting": "[4]; above 1.0 mg·mL^–1", "result": "approximately 55.0 mN·m^–1"}, {"measurement": "critical aggregation concentration", "setting": "[4]; water, 25 °C, inflection of surface tension versus log concentration", "result": 0.6, "unit": "mg·mL^–1"}]}]}
